Measurements published in patent US20220175720A1, “COMBINED P[…] ANTHOCYANIN COMPOSITION AND AN ANTIVIRAL AGENT” (priority 2019, published 2022).

Tests used:
[1] = test system: GFP-encoding wildtype HSV-1 virus; test: HSV-1 infection assay, GFP-expressing infected cells counted directly; assay type: cell-based, herpes simplex virus 1; details: single anthocyanins, BHK cells
Description: BHK cells were incubated with decreasing concentration of the solubilized test compounds for approx. 1 h. All concentrations were analyzed by six independent replicates on a black 96 well plate (PerkinElmer). Cells were infected with GFP-encoding wildtype HSV-1 virus and incubated for two days. Two days after infection, HSV-1-infected cells and GFP expressing cells were directly counted using the PerkinElmer Ensight system with optical cell culture plates. The instrument was controlled by manual counting.
The cells were subsequently infected with GFP-encoding HSV at a multiplicity of infection of 2.5, and infected GFP-expressing cells were counted one day after infection using the PerkinElmer Ensight system. […] Thus, the sugar is not required as potential co-factor for drug uptake.

HSV-1 = HSV-1 complete replication cycle assay, supernatants used to infect fresh BHK cells; assay type: cell-based, herpes simplex virus 1
Description: To not only analyze the virus entry and early phase of virus replication of infection but also later phases of viral replication, the test assay was adjusted accordingly. BHK cells were incubated with test compounds and subsequently infected with HSV-1. Two days after infection supernatants were collected, centrifuged to remove detached cells and used to infect BHK cells. After two additional days infected cells were quantified using the Ensight system.
Two days after infection supernatants were collected, centrifuged to remove detached cells and used to infect BHK cells. After two additional days infected cells were quantified using the PerkinElmer Ensight system. The mean of infected cells from six independent wells was calculated. Error bars show the standard deviation.
(§1) However, Aciclovir, the standard therapy for HSV-1, targets viral DNA replication before the late phase of virus replication cycle. […] Two days after infection supernatants were collected, centrifuged to remove detached cells and used to infect BHK cells. After two addition days infected cells were quantified.
as §1

| Structure (SMILES) | inhibition of HSV-1 (viral infectivity) [1] | reduction of infected cells (HSV-1; 0.5 μg/ml Aciclovir alone) | reduction of viral infectivity (HSV-1; 2 μg/ml Aciclovir alone) |
| --- | --- | --- | --- |
| COc1cc(-c2[o+]c3cc(O)cc(O)c3cc2O[C@@H]2O[C@H](CO)[C@@H](O)[C@H](O)[C@H]2O)cc(O)c1O [Pet3G, Petunidin 3-glucoside] | Neither C3G nor D3Gal or Pet3G inhibited HSV-1 |  |  |
| OC[C@H]1O[C@@H](Oc2cc3c(O)cc(O)cc3[o+]c2-c2cc(O)c(O)c(O)c2)[C@H](O)[C@@H](O)[C@H]1O [D3Gal, Delphinidin 3-galactoside] | Neither C3G nor D3Gal or Pet3G inhibited HSV-1 |  |  |
| Nc1nc2c(ncn2COCCO)c(=O)[nH]1 [Aciclovir, 9-(2-hydroxyethoxymethyl)guanine] |  | two | two |
| OC[C@H]1O[C@@H](Oc2cc3c(O)cc(O)cc3[o+]c2-c2ccc(O)c(O)c2)[C@H](O)[C@@H](O)[C@@H]1O [C3G, Cyanidin 3-glucoside] | Neither C3G nor D3Gal or Pet3G inhibited HSV-1 |  |  |
